# Measurements from patent US20170190705A1, “Compositions and Methods for Inhibiting BMP” (THE BRIGHAM AND WOMAN'S HOSPITAL, INC., priority 2014, published 2017).
# Where two headings read alike, the source gives them in different places.
# Key:
# ALK2 = molecular target: T1, ALK2 (Homo sapiens, UniProt Q04771, Q207D); experiment: Thermal shift kinase assay ALK2; assay type: binding; conditions: ALK2 minus ALK5
# T1 construct: His tag (TEV-cleavable) (N, cleaved yes); made in house; host or cells: Sf9 insect cells (baculovirus)
# T1 sequence (Q04771 201-499 Q207D): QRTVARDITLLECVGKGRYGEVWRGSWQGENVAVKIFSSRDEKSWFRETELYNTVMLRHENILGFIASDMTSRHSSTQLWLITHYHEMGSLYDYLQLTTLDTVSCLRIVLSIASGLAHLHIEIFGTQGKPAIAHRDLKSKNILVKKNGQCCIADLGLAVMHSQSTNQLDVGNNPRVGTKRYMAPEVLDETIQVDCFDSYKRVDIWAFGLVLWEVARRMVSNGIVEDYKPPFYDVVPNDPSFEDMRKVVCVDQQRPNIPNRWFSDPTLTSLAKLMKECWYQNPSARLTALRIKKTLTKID
# Description: Thermal melting experiments were performed using a Real Time PCR machine Mx3005p (Stratagene) with a protein concentration of 1-2 μM and 10 μM inhibitor as described by Niesen et al., Nat Protoc 2007, 2, 2212-21. Recombinant human kinases for DSF screening were prepared by SGC using the published methods of Sanvitale et al., PLoS One 2013, 8, e62721. The potency and selectivity of certain compounds of the invention based on thermal shift kinase and ligand induced transcriptional activity assays are shown in Table 2.
# [1] = tested on: HePG2 hepatocarcinoma cells; assay type: cell-based; conditions: human
# Description: The cells were incubated for 2 h (37° C. and 5% CO2) and allowed to settle and attach. Compounds of interest or DMSO were diluted in DMEM and added at final compound concentrations of 1 μM, 10 μM, and 100 μM. Cells were incubated for 4 hours and 24 hours after which the media was discarded. Cells were lysed by adding 30 μL of passive lysis buffer (Promega) and shaken at RT for 15 min. Cell viability was determined by quantifying the ATP present in each well by adding 10 μL of CellTiter-Glo (Promega) per well and measuring the light output Spectramax L luminometer (Molecular Devices) with an integration time of one second per well. Data was normalized to 100% viability for cells receiving only DMSO without any concurrent compound.
# BMP6 = experiment: Ligand induced transcriptional activity assay BMP6 (BRE-Luc); assay type: cell-based; conditions: cell-based signaling inhibition; read-out: BMP6 IC50
Structure (SMILES),ΔTmDiff. (ALK2),"Cell viability ([1]; 4 h, 1 μM)","Cell viability ([1]; 4 h, 10 μM)","Cell viability ([1]; 4 h, 100 μM)","Cell viability ([1]; 24 h, 1 μM)","Cell viability ([1]; 24 h, 10 μM)","Cell viability ([1]; 24 h, 100 μM)",IC50 (BMP6)
"COc1cc(-c2cc(-c3cccc(NS(C)(=O)=O)c3)cnc2N)cc(OC)c1OC [Compound 13, N-(3-(6-amino-5-(3,4,5-trimethoxyphenyl)pyridin-3-yl)phenyl)methanesulfonamide]",0.9,97%,100%,95%,101%,98%,82%,60 ± 10 nM
"COc1cc(-c2cc(-c3cccc(N4CCNCC4)c3)cnc2N)cc(OC)c1OC [Compound 14, 5-(3-(piperazin-1-yl)phenyl)-3-(3,4,5-trimethoxyphenyl)pyridin-2-amine]",0.8,96%,110%,99%,99%,93%,–,–
"COc1ccc(-c2cc(-c3ccc(N4CCNCC4)cc3)cnc2N)cc1OC [Compound 16, 3-(3,4-dimethoxyphenyl)-5-(4-(piperazin-1-yl)phenyl)pyridin-2-amine]",4.3,–,–,–,–,–,–,–
"COc1cc(OC)cc(-c2cc(-c3ccc(N4CCNCC4)cc3)cnc2N)c1 [Compound 17, 3-(3,5-dimethoxyphenyl)-5-(4-(piperazin-1-yl)phenyl)pyridin-2-amine]",3.5,95%,99%,–,99%,80%,–,40 ± 10 nM
"COc1cccc(-c2cc(-c3ccc(N4CCNCC4)cc3)cnc2N)c1 [Compound 18, 3-(3-methoxyphenyl)-5-(4-(piperazin-1-yl)phenyl)pyridin-2-amine]",3.8,98%,101%,106%,103%,100%,–,–
"Nc1ncc(-c2ccc(N3CCNCC3)cc2)cc1-c1ccc2c(c1)OCCO2 [Compound 19, 3-(2,3-dihydrobenzo[b][1,4]dioxin-6-yl)-5-(4-(piperazin-1-yl)phenyl)pyridin-2-amine]",4.0,100%,102%,91%,103%,95%,–,730 ± 100 nM
"COc1ccc(-c2cc(-c3ccc(N4CCNCC4)cc3)cnc2N)cc1 [Compound 20, 3-(4-methoxyphenyl)-5-(4-(piperazin-1-yl)phenyl)pyridin-2-amine]",4.5,106%,102%,–,108%,104%,–,–
"CC(C)Oc1cccc(-c2cc(-c3ccc(N4CCNCC4)cc3)cnc2N)c1 [Compound 21, 3-(3-isopropoxyphenyl)-5-(4-(piperazin-1-yl)phenyl)pyridin-2-amine]",1.0,94%,105%,–,98%,82%,–,–
"COc1cc(-c2cc(-c3ccc(N4CCNCC4)cc3)cnc2N)ccc1Cl [Compound 22, 3-(4-chloro-3-methoxyphenyl)-5-(4-(piperazin-1-yl)phenyl)pyridin-2-amine]",2.7,96%,104%,–,101%,81%,–,160 ± 10 nM
"COc1cc(-c2cc(-c3ccc(N4CCNCC4)cc3)cnc2N)ccc1C [Compound 23, 3-(3-methoxy-4-methylphenyl)-5-(4-(piperazin-1-yl)phenyl)pyridin-2-amine]",3.8,95%,101%,–,98%,86%,–,–
"CNc1ncc(-c2ccc(N3CCNCC3)cc2)cc1-c1cc(OC)c(OC)c(OC)c1 [Compound 24, N-methyl-5-(4-(piperazin-1-yl)phenyl)-3-(3,4,5-trimethoxyphenyl)pyridin-2-amine]",−0.5,95%,105%,86%,101%,86%,–,–
Nc1ncc(-c2ccc(N3CCNCC3)cc2)cc1-c1ccnc2ccccc12 [Compound 29],3.4,91%,104%,108%,108%,84%,–,110 ± 50 nM
"Nc1ncc(-c2cccc(N3CCNCC3)c2)cc1-c1ccnc2ccccc12 [Compound 30, 5-(3-(piperazin-1-yl)phenyl)-3-(quinolin-4-yl)pyridin-2-amine]",2.5,92%,104%,–,104%,92%,5%,520 ± 60 nM
"Nc1ncc(-c2ccc(N3CCNCC3)cc2)cc1-c1cccc2ncccc12 [Compound 31, 5-(4-(piperazin-1-yl)phenyl)-3-(quinolin-5-yl)pyridin-2-amine]",4.2,96%,103%,117%,105%,95%,–,170 ± 60 nM
"COc1cc(-c2cnn3cc(-c4ccc(N5CCNCC5)cc4)cnc23)cc(OC)c1OC [Compound 32, 3-(3,4,5-trimethoxyphenyl)-6-[4-(1-piperazinyl)phenyl]pyrazolo[1,5-a]pyrimidine]",2.6,92%,101%,–,99%,–,–,20 ± 2 nM
"COc1cc(OC)cc(-c2cncc(-c3ccc(N4CCNCC4)cc3)c2)c1 [Compound 33, 1-(4-(5-(3,5-dimethoxyphenyl)pyridin-3-yl)phenyl)piperazine]",4.7,95%,100%,–,101%,92%,–,–
"Cc1nc(Nc2ncc(C(=O)Nc3c(C)cccc3Cl)s2)cc(N2CCN(CCO)CC2)n1 [Dasatinib, reference compound]",–,94%,107%,–,87%,–,–,–
"C#Cc1cccc(Nc2ncnc3cc(OCCOC)c(OCCOC)cc23)c1 [Erlotinib, reference compound]",–,96%,107%,108%,99%,84%,84%,–
"COc1cc2ncnc(Nc3ccc(F)c(Cl)c3)c2cc1OCCCN1CCOCC1 [Gefitinib, reference compound]",–,93%,105%,104%,98%,82%,85%,–
"CS(=O)(=O)CCNCc1ccc(-c2ccc3ncnc(Nc4ccc(OCc5cccc(F)c5)c(Cl)c4)c3c2)o1 [Lapatinib, reference compound]",–,100%,104%,104%,98%,92%,89%,–
"Cc1cn(-c2cc(NC(=O)c3ccc(C)c(Nc4nccc(-c5cccnc5)n4)c3)cc(C(F)(F)F)c2)cn1 [Nilotinib, reference compound]",–,99%,106%,105%,100%,101%,91%,–
"N#CC[C@H](C1CCCC1)n1cc(-c2ncnc3[nH]ccc23)cn1 [Ruxolitinib, reference compound]",–,101%,105%,88%,100%,90%,–,–
"CCN(CC)CCNC(=O)c1c(C)[nH]c(/C=C2\C(=O)Nc3ccc(F)cc32)c1C [Sunitinib, reference compound]",–,97%,107%,–,96%,–,–,–
"CCCS(=O)(=O)Nc1ccc(F)c(C(=O)c2c[nH]c3ncc(-c4ccc(Cl)cc4)cc23)c1F [Vemurafenib, reference compound]",–,103%,100%,102%,95%,77%,–,–
